Results from patent publication US10988477B2 (Merck Patent GmbH, priority 2018, dated 2021).

Molecular target: GCN2 kinase (Homo sapiens, UniProt Q9P2K8)
Assay: GCN2 enzyme inhibition assay (Transcreener ADP2 fluorescence polarization)
Assay type: biochemical
Conditions: Enzyme activity for compounds of Formula IV; Ki(app), 280 μM ATP, 25° C.
How it was run: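 ADP formation read by Transcreener FP after a 1 h, 25 °C kinase reaction containing 280 μM ATP, 200 μM (RS)7 substrate and 4 nM GCN2, pH 7.5 Tris buffer. Compounds (0–8 μM final) were added 10 min before ATP. Percent inhibition gave IC50 and apparent Ki via tight-binding fit.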

Chain of GCN2 kinase (Q9P2K8 whole entry): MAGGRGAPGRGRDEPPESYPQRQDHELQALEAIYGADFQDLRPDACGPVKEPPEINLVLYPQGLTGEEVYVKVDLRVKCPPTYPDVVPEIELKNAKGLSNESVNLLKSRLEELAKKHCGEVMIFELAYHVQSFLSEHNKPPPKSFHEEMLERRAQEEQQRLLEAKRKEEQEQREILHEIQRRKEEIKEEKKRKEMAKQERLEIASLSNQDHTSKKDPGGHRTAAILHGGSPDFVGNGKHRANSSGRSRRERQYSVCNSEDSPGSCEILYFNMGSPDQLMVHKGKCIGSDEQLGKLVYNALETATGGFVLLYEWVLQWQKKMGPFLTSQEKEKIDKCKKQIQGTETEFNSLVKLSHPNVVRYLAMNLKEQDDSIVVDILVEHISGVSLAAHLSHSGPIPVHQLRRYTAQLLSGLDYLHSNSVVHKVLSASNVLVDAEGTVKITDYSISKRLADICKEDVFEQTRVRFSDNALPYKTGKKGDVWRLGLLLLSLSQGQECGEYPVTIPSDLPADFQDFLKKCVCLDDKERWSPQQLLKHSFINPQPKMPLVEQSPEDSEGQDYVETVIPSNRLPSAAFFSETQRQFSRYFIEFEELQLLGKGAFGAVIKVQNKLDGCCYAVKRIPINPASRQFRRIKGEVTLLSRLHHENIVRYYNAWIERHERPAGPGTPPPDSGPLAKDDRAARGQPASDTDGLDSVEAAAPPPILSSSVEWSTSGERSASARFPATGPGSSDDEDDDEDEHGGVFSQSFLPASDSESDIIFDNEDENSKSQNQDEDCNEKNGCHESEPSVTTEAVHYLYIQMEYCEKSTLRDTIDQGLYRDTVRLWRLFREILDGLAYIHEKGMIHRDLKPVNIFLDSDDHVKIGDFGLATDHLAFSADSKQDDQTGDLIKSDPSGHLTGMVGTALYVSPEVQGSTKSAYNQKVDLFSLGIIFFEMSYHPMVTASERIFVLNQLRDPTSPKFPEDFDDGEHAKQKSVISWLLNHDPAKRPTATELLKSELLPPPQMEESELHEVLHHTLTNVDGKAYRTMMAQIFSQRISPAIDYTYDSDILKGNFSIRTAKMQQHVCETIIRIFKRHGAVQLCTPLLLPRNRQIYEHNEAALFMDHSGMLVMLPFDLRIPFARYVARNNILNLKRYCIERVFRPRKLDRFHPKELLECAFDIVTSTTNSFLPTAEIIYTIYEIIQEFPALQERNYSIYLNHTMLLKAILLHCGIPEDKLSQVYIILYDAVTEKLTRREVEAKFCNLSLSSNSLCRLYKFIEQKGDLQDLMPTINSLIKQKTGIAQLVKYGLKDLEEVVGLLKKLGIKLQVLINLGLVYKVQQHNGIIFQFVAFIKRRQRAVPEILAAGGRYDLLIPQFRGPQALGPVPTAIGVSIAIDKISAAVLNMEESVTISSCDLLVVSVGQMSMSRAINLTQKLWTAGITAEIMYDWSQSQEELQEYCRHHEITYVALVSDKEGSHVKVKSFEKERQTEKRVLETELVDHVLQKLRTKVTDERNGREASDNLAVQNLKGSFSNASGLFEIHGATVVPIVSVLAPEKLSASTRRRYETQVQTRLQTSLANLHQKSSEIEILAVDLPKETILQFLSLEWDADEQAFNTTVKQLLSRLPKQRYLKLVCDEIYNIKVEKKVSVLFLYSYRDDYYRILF

Compared with `CC(=O)NC1CCN(c2ccnc(-c3cnc4cnc(C(N)=O)cn34)n2)CC1` [IV-248, 3-(4-(4-Acetamidopiperidin-1-yl)pyrimidin-2-yl)imidazo[1,2-a]pyrazine-6-carboxamide], `CC(=O)N1CCN(c2ccnc(-c3cnc4cnc(C(N)=O)cn34)n2)C(C)C1` (stereo not drawn) [IV-272, 3-(4-(4-Acetyl-2-methylpiperazin-1-yl)pyrimidin-2-yl)imidazo[1,2-a]pyrazine-6-carboxamide] is higher in Ki: 0.01 to 0.1 µM for the first, 0.1 to 1 µM for the second.

`Cc1nc(C2=CCCN(c3ccnc(-c4cnc5cnc(Br)cn45)n3)C2)c[nH]1` [IV-356, 6-Bromo-3-(4-(5-(2-methyl-1H-imidazol-4-yl)-3,6-dihydropyridin-1(2H)-yl)pyrimidin-2-yl)imidazo[1,2-a]pyrazine] and `CC1C(c2cn[nH]c2)OCCN1c1ccnc(-c2cnc3cnc(Br)cn23)n1` (single isomer, unassigned) [IV-328, 4-(2-(6-Bromoimidazo[1,2-a]pyrazin-3-yl)pyrimidin-4-yl)-3-methyl-2-(1H-pyrazol-4-yl)morpholine] cannot be ordered by Ki: less than 0.01 µM for the first, less than 0.01 µM for the second.

First: CC1CN(c2ccnc(-c3cnc4cnc(C(F)(F)F)cn34)n2)CC(c2cn[nH]c2C(F)(F)F)N1 (single isomer, unassigned) [IV-475, 3-(4-(3-Methyl-5-(5-(trifluoromethyl)-1H-pyrazol-4-yl)piperazin-1-yl)pyrimidin-2-yl)-6-(trifluoromethyl)imidazo[1,2-a]pyrazine]
Second: CC1CN(c2ccnc(-c3cnc4cnc(C(F)(F)F)cn34)n2)C(C)C(c2cn[nH]c2)N1 (single isomer, unassigned) [IV-223, 3-(4-(2,5-Dimethyl-3-(1H-pyrazol-4-yl)piperazin-1-yl)pyrimidin-2-yl)-6-(trifluoromethyl)imidazo[1,2-a]pyrazine]
The Ki of the first is lower: 0.01 to 0.1 µM for the first, 0.1 to 1 µM for the second.

Compared with `C[C@H]1NCCN(c2ccnc(-c3cnc4cnc(C(F)(F)F)cn34)n2)[C@H]1c1cn[nH]c1` (relative stereo) [IV-208, Cis-3-(4-(3-Methyl-2-(1H-pyrazol-4-yl)piperazin-1-yl)pyrimidin-2-yl)-6-(trifluoromethyl)imidazo[1,2-a]pyrazine], `C[C@H]1[C@@H](c2cn[nH]c2)OCCN1c1ccnc(-c2cnc3cnc(Cl)cn23)n1` (racemic) [IV-235, Cis-4-(2-(6-Chloroimidazo[1,2-a]pyrazin-3-yl)pyrimidin-4-yl)-3-methyl-2-(1H-pyrazol-4-yl)morpholine] is lower in Ki: 0.01 to 0.1 µM for the first, less than 0.01 µM for the second.

`CC(=O)N1CCN(c2ccnc(-c3cnc4cnc(-c5ccc(C(N)=O)cc5)cn34)n2)CC1` [IV-303, 4-(3-(4-(4-Acetylpiperazin-1-yl)pyrimidin-2-yl)imidazo[1,2-a]pyrazin-6-yl)benzamide] and `CC(=O)N1CCN(c2ccc(C(F)(F)F)c(-c3cnc4cnc(C(N)=O)cn34)n2)CC1` [IV-700, 3-(6-(4-acetylpiperazin-1-yl)-3-(trifluoromethyl)pyridin-2-yl)imidazo[1,2-a]pyrazine-6-carboxamide] fall in the same range of Ki: 0.1 to 1 µM for the first, 0.1 to 1 µM for the second.

Compared with `O=C(N[C@H]1CCCN(c2ccnc(-c3cnc4cnc(C(F)(F)F)cn34)n2)C1)C1CC1` [IV-732], `CC(=O)NC1CCN(c2ccnc(-c3cnc4cnc(C(F)(F)F)cn34)n2)C1` (stereo not drawn) [IV-528, N-(1-(2-(6-(Trifluoromethyl)imidazo[1,2-a]pyrazin-3-yl)pyrimidin-4-yl)pyrrolidin-3-yl)acetamide] is lower in Ki: greater than 1 µM for the first, 0.1 to 1 µM for the second.

First: CN1CCN(c2cccc(-c3cnc4cnc(C(N)=O)cn34)n2)CC1 [IV-212, 3-(6-(4-Methylpiperazin-1-yl)pyridin-2-yl)imidazo[1,2-a]pyrazine-6-carboxamide]
Second: NC(=O)c1cn2c(-c3nccc(N4CCC5(CCCO5)CC4)n3)cnc2cn1 [IV-269, 3-(4-(1-Oxa-8-azaspiro[4.5]decan-8-yl)pyrimidin-2-yl)imidazo[1,2-a]pyrazine-6-carboxamide]
The Ki of the first is higher: 0.1 to 1 µM for the first, 0.01 to 0.1 µM for the second. The second binds more tightly here.

First: O=C(N[C@H]1CCCN(c2ccnc(-c3cnc4cnc(C(F)(F)F)cn34)n2)C1)c1cc[nH]n1 [IV-737]
Second: FC(F)(F)c1cn2c(-c3nccc(N4CCCC(c5ncc[nH]5)C4)n3)cnc2cn1 (stereo not drawn) [IV-708]
The Ki of the first is higher: greater than 1 µM for the first, 0.01 to 0.1 µM for the second. The second binds more tightly here.

`COCC1CCN(c2ccnc(-c3cnc4cnc(C(F)(F)F)cn34)n2)CC1` [IV-512, 3-(4-(4-(Methoxymethyl)piperidin-1-yl)pyrimidin-2-yl)-6-(trifluoromethyl)imidazo[1,2-a]pyrazine] and `OC1CCN(c2ccnc(-c3cnc4cnc(C(F)(F)F)cn34)n2)CC1` [IV-441, 1-(2-(6-(Trifluoromethyl)imidazo[1,2-a]pyrazin-3-yl)pyrimidin-4-yl)piperidin-4-ol] fall in the same range of Ki: 0.1 to 1 µM for the first, 0.1 to 1 µM for the second.

First: Cn1cc(NC(=O)[C@H]2CCCN(c3ccnc(-c4cnc5cnc(C(F)(F)F)cn45)n3)C2)cn1 [IV-739]
Second: FC(F)(F)c1cn2c(-c3nccc(N4CCC(COc5ccccc5)C4)n3)cnc2cn1 (stereo not drawn) [IV-559, 3-(4-(3-(Phenoxymethyl)pyrrolidin-1-yl)pyrimidin-2-yl)-6-(trifluoromethyl)imidazo[1,2-a]pyrazine]
The Ki of the first is higher: greater than 1 µM for the first, 0.1 to 1 µM for the second. The second binds more tightly here.

`FC(F)(F)c1cn2c(-c3nccc(N4CCCC4Cc4ccccc4)n3)cnc2cn1` (stereo not drawn) [IV-561, 3-(4-(2-Benzylpyrrolidin-1-yl)pyrimidin-2-yl)-6-(trifluoromethyl)imidazo[1,2-a]pyrazine] and `Cn1ccc2cc(-c3ccnc(-c4cnc5cnc(C(F)F)cn45)n3)ccc21` [IV-158, 6-(Difluoromethyl)-3-(4-(1-methyl-1H-indol-5-yl)pyrimidin-2-yl)imidazo[1,2-a]pyrazine] fall in the same range of Ki: 0.1 to 1 µM for the first, 0.1 to 1 µM for the second.

Same assay, conditions: compounds of Formula II; 280 μM ATP, 4 nM GCN2 kinase

`CS(=N)(=O)CC1CCCN(c2cc(-c3cnc4ccc(C(F)F)nn34)ncn2)C1` (single isomer, unassigned) [II-638, ((1-(6-(6-(Difluoromethyl)imidazo[1,2-b]pyridazin-3-yl)pyrimidin-4-yl)piperidin-3-yl)methyl)(imino)(methyl)-λ^6-sulfanone] and `CC(NS(C)(=O)=O)C1CCCN(c2cc(-c3cnc4ccc(C(F)F)nn34)ncn2)C1` (stereo not drawn) [II-619, N-(1-(1-(6-(6-(Difluoromethyl)imidazo[1,2-b]pyridazin-3-yl)pyrimidin-4-yl)piperidin-3-yl)ethyl)methanesulfonamide] fall in the same range of Ki: 0.01 to 1 µM for the first, 0.01 to 1 µM for the second.

`FC(F)(F)c1ccc2ncc(-c3ccnc(N4CCCC(c5ncc[nH]5)C4)c3)n2n1` (stereo not drawn) [II-746] and `N#CCC1CCCN(c2cc(-c3cnc4ccc(C(F)(F)F)nn34)ncn2)C1` (stereo not drawn) [II-501, 2-(1-(6-(6-(Trifluoromethyl)imidazo[1,2-b]pyridazin-3-yl)pyrimidin-4-yl)piperidin-3-yl)acetonitrile] fall in the same range of Ki: 0.01 to 1 µM for the first, 0.01 to 1 µM for the second.

`CC1CCN(c2cc(-c3cnc4ccc(C(F)F)nn34)ncn2)CC1N=S(C)(C)=O` (single isomer, unassigned) [II-633, ((1-(6-(6-(Difluoromethyl)imidazo[1,2-b]pyridazin-3-yl)pyrimidin-4-yl)-4-methylpiperidin-3-yl)imino)dimethyl-λ^6-sulfanone] and `CC1C(N=S(C)(C)=O)CCCN1c1cc(-c2cnc3ccc(C(F)F)nn23)ncn1` (single isomer, unassigned) [II-594, ((1-(6-(6-(Difluoromethyl)imidazo[1,2-b]pyridazin-3-yl)pyrimidin-4-yl)-2-methylpiperidin-3-yl)imino)dimethyl-λ^6-sulfanone] fall in the same range of Ki: 0.01 to 1 µM for the first, 0.01 to 1 µM for the second.

`CC1C(CN=S(C)(C)=O)CCCN1c1cc(-c2cnc3ccc(C(F)F)nn23)ncn1` (stereo not drawn) [II-584, (((1-(6-(6-(Difluoromethyl)imidazo[1,2-b]pyridazin-3-yl)pyrimidin-4-yl)-2-methylpiperidin-3-yl)methyl)imino)dimethyl-λ^6-sulfanone] and `CS(=N)(=O)CC1CCCN(c2cc(-c3cnc4ccc(C(F)F)nn34)ncn2)C1` (single isomer, unassigned) [II-637, ((1-(6-(6-(Difluoromethyl)imidazo[1,2-b]pyridazin-3-yl)pyrimidin-4-yl)piperidin-3-yl)methyl)(imino)(methyl)-λ^6-sulfanone] fall in the same range of Ki: 0.01 to 1 µM for the first, 0.01 to 1 µM for the second.

Compared with `CS(=O)(=O)NCC1CN(c2cc(-c3cnc4ccc(C(F)F)nn34)ncn2)C[C@@H]2C[C@H](F)CN12` (stereo partly drawn) [II-568, N-(((7S,8aS)-2-(6-(6-(Difluoromethyl)imidazo[1,2-b]pyridazin-3-yl)pyrimidin-4-yl)-7-fluorooctahydropyrrolo[1,2-a]pyrazin-4-yl)methyl)methanesulfonamide], `CCC1COC(CNS(C)(=O)=O)CN1c1cc(-c2cnc3ccc(C(F)F)nn23)ncn1` (stereo not drawn) [II-269, N-((4-(6-(6-(Difluoromethyl)imidazo[1,2-b]pyridazin-3-yl)pyrimidin-4-yl)-5-ethylmorpholin-2-yl)methyl)methanesulfonamide] is higher in Ki: less than 0.01 µM for the first, 0.01 to 1 µM for the second.

First: CC1CC(N=S(C)(=O)C2CC2)CN(c2cc(-c3cnc4ccc(C(F)F)nn34)ncn2)C1 (single isomer, unassigned) [II-645, Cyclopropyl((1-(6-(6-(difluoromethyl)imidazo[1,2-b]pyridazin-3-yl)pyrimidin-4-yl)-5-methylpiperidin-3-yl)imino)(methyl)-λ^6-sulfanone]
Second: [2H]C([2H])([2H])N1CCN(c2cc(-c3cnc4ccc(C(F)F)nn34)ncn2)C(C)C1CNS(C)(=O)=O (stereo not drawn) [II-562, N-((4-(6-(6-(Difluoromethyl)imidazo[1,2-b]pyridazin-3-yl)pyrimidin-4-yl)-3-methyl-1-(methyl-d3)piperazin-2-yl)methyl)methanesulfonamide]
The Ki of the first is higher: 0.01 to 1 µM for the first, less than 0.01 µM for the second.

Same assay, conditions: compounds of Formula V; 280 μM ATP, 4 nM GCN2 kinase

`CP(C)(=O)C1CC(c2cn[nH]c2)CN(c2ccnc(-c3cnc4sc(C(F)(F)F)cn34)n2)C1` (racemic) [Compound V-6, 5-[4-[3-Dimethylphosphoryl-5-(1H-pyrazol-4-yl)-1-piperidyl]pyrimidin-2-yl]-2-(trifluoromethyl)imidazo[2,1-b]thiazole] and `O=C1CCN(c2ccnc(-c3cnc4sc(C(F)(F)F)cn34)n2)CCN1` [Compound V-8, 1-[2-[2-(Trifluoromethyl)imidazo[2,1-b]thiazol-5-yl]pyrimidin-4-yl]-1,4-diazepan-5-one] fall in the same range of Ki: 0.1 to 1 µM for the first, 0.1 to 1 µM for the second.
